Here are results for 4 compounds from patent US20220056014A1, “PHENYLPYRROLIDINE COMPOUND AND USE THEREOF” (WUHAN HUMANWELL INNOVATIVE DRUG RESEARCH AND DEVELOPMENT …, priority 2018, published 2022).

Like-named read-outs stand apart in the source and are kept apart here.

Data set [1] has as its system LPS-stimulated TNF-α release. Kind of data set: LPS-stimulated TNF-α release in mice. The data set is classed as in vivo, Balb/c mice. To be noted: Mus musculus, oral 50 mg/kg (positive control 100 mg/kg), 1 mg/kg LPS i.p. In short, it runs like this:
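Balb/c mice (6 per group) dosed orally with 50 mg/kg compound, then 1 mg/kg LPS i.p. 30 min later; serum taken 90 or 120 min post-LPS. Serum TNF-α measured by ELISA; inhibition % calculated relative to model and blank (PBS) groups.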

The nature of data set [2]: Pharmacokinetic test in canine. In kind it is in vivo, beagle dogs. The conditions noted are these: male, beagle, dog, plasma, oral gavage 5 mg/kg. How it is done:
(§1) In the rat pharmacokinetic test, 3 male SD rats (180-240 g) were fasted overnight, and orally administered with 10 mg/kg of compound to be tested. Blood was collected before the administration, and 15 min, 30 min, 1 h, 2 h, 4 h, 8 h, and 24 h hours after the administration. The blood sample was centrifuged at 8000 rpm for 6 min at 4° C., and the plasma was collected and stored at −20° C. The plasma collected at each time point was added and mixed with 3-5 times the amount of acetonitrile solution containing an internal standard, vortexed for 1 min, centrifuged at 13,000 rpm for 10 min at 4° C. The supernatant was taken and mixed with 3 times the amount of water, and an appropriate amount of the mixture was taken for LC-MS/MS analysis. The main pharmacokinetic parameters were analyzed with WinNonlin 7.0 software non-compartmental model.
(§2) In the mouse pharmacokinetic test, 9 male CD-1 mice (20-25 g) were fasted overnight, and orally administered with 10 mg/kg of the compound to be tested. Bloods of 3 mice were collected at each time point, and bloods of 9 mice were alternately collected in total. In the pharmacokinetic test in canine, 3 male beagle dogs (8-10 kg) were fasted overnight, and orally administered with 5 mg/kg of the compound to be test. In the pharmacokinetic test of cynomolgus monkeys, 3 male cynomolgus monkeys (4 to 6.5 kg) were fasted overnight, and orally administered 20 mg/kg of the compound to be test. The remaining processes are the same as those of the rat pharmacokinetic test.

Data set [3] relates to LPS-induced secretion of TNFα in human PBMCs. In words: LPS-induced secretion of TNFα in human PBMCs. In kind it is cell-based. To be noted: Homo sapiens, PBMC, 24 h, LPS 10 ng/ml. In short, it runs like this:
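PBMCs isolated by Lymphoprep density centrifugation were seeded at 5×10^4/well in RPMI1640 + 10% FBS and given compound, with 30 min pre-incubation, then stimulated with 10 ng/ml LPS (final). After 24 h, supernatant TNF-α was measured by ELISA kit.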

Data set [4] is described as follows: Pharmacokinetic test of cynomolgus monkeys. To be noted: male, plasma; cynomolgus monkey, oral gavage 20 mg/kg. In kind it is in vivo. How it is done: as §1, §2
Setting [5] is: 1.5 h, blood 90 min after LPS, read-out: Inhibition rate (%) of LPS-stimulated TNF-α release, 90 min.
The mark [6] stands for this setting: 2 h, blood 120 min after LPS, read-out: Inhibition rate (%) of LPS-stimulated TNF-α release, 120 min.

As for `COc1ccc([C@@H]2CN(C(=O)[C@@H](O)CO)C[C@@]2(C)[C@@H](C)O)cc1OC1CN(c2ncc(C)cc2F)C1` [Compound 004, (S)-1-((3S,4S)-4-(3-((1-(3-fluoro-5-methylpyridin-2-yl)azetidin-3-yl)oxy)-4-methoxyphenyl)-3-((R)-1-hydroxyethyl)-3-methylpyrrolidin-1-yl)-2,3-dihydroxypropan-1-one], in data set [1] (setting [5]), the inhibition in vivo at 50 mg/kg was 39.6%. In addition, the inhibition in vivo at 50 mg/kg in data set [1] (setting [6]) is 58.6%. Besides, in data set [2], the AUC(0-t) – broadly, exposure summed from dosing to a finite time, without extrapolation to infinity – is 1740 ng·h/mL; the maximum concentration (Cmax) (commonly the maximum level reached in the sampled fluid or tissue) amounted to 484 ng/mL; the Tmax (usually the time at which the peak concentration occurs) came to 49.8 min. Besides, in data set [3], the IC50 – broadly, the midpoint of a concentration-inhibition curve – was determined as 5.13 nM.
As to `COc1ccc([C@@H]2CN(C(=O)[C@@H](O)CO)C[C@@]2(C)[C@@H](C)O)cc1OC1CN(c2ccc(C)c(C)n2)C1` [Compound 007, (S)-1-((3S,4S)-4-(3-((1-(5,6-dimethylpyridin-2-yl)azetidin-3-yl)oxy)-4-methoxyphenyl)-3-((R)-1-hydroxyethyl)-3-methylpyrrolidin-1-yl)-2,3-dihydroxypropan-1-one], the values for the inhibition in vivo at 50 mg/kg in data set [1] (setting [5]) and in data set [1] (setting [6]) were 52.1% and 66.4%, respectively. Moreover, the AUC(0-t) in data set [4] was 44400 ng·h/mL; in data set [2], 1690 ng·h/mL. The maximum concentration (Cmax) in data set [4] worked out at 13800 ng/mL; in data set [2], 689 ng/mL. Besides, the Tmax in data set [4] came to 105 min; in data set [2], 15 min. The compound further had a concentration for half-maximal inhibition (IC50) in data set [3] of 2.24 nM.
Turning to `COc1ccc([C@@H]2CN(C(=O)[C@@H](O)CO)C[C@@]2(C)[C@@H](C)O)cc1OC1CN(c2ccc(Cl)c(C)n2)C1` [Compound 011, (S)-1-((3S,4S)-4-(3-((1-(5-chloro-6-methylpyridin-2-yl)azetidin-3-yl)oxy)-4-methoxyphenyl)-3-((R)-1-hydroxyethyl)-3-methylpyrrolidin-1-yl)-2,3-dihydroxypropan-1-one], in data set [1] (setting [5]), the inhibition in vivo at 50 mg/kg stood at 47.4%. Further, the inhibition in vivo at 50 mg/kg in data set [1] (setting [6]) came to 63.3%. In data set [2], the AUC(0-t) was determined as 1420 ng·h/mL, the concentration peaked (Cmax) at 356 ng/mL and the Tmax is 49.8 min. This compound gave an IC50 in data set [3] of 1.55 nM.
As to `COc1ccc([C@@H]2CN(C(=O)[C@@H](O)CO)C[C@@]2(C)[C@@H](C)O)cc1OC1CN(c2ccc(C)cn2)C1` [Positive control compound, reference compound], in data set [1] (setting [5]), the inhibition in vivo at 50 mg/kg came to 44.4%. In addition, in data set [1] (setting [6]), the inhibition in vivo at 50 mg/kg is 49%. For the same compound, in data set [4], the AUC(0-t) came out at 3640 ng·h/mL, the Cmax was 565 ng/mL and the Tmax came to 90 min. Besides, in data set [2], the AUC(0-t) worked out at 423 ng·h/mL, the Cmax was found to be 159 ng/mL and the Tmax came to 55.2 min. In data set [3], this compound had an IC50 of 3.32 nM.
